{"source": "patent US5958770A", "about": "“Glycoalkaloids” (priority 1990, dated 1999)", "key": {"fibroblasts": {"tested_on": "fibroblasts", "assay": "Solamargine cytotoxicity in presence and absence of carbohydrates, fibroblasts", "assay_type": "cell-based, human", "details": "Homo sapiens, Fibroblast, Fb, solamargine 3.1 μM/L, read-out: Percentage Survival", "protocol": "A mixture of solasodine glycosides (BEC), of which the active compound is solamargine and from which the aglycone solasodine is derived was prepared for use in cytotoxicity assays as determined by the uptake of tritiated thymidine. Inhibition studies were carried out with lactose, lactosyl-albumin, galactose or rhamnose (Sigma Chemical Co., USA). All experimental replicates were related to their own controls. Total volume of replicates was 250 μl (carbohydrates added in 50 μl tissue culture media+10% fetal calf serum), and the cell concentrations were 8×10^4 /ml."}, "[1]": {"tested_on": "Con A stimulated lymphocytes", "assay": "Inhibition of tritiated thymidine uptake, Con A stimulated lymphocytes", "details": "Con A stimulated lymphocytes"}, "in vitro": {"assay": "in vitro", "details": "human, pha stimulated lymphocytes", "description": "(§1) This was cultured for 48 hours and pulsed with tritiated thymidine for a further 24 hours. In the inhibition studies, the cell concentration was 8×10^5 /ml.\n(§2) All cells were harvested by vacuum filtration by washing in 250 μl of each of phosphate buffered saline, 5% trichloroacetic acid, 1.0M NaCl and 95% ethanol and subjected to β-scintillatian counting. Similarly, peripheral human blood lymphocytes were isolated and cultured 2×10^5 lymphocytes in CO2 1640TCM 10% HIFCS. Lymphocytes were stimulated with 20 μg/ml PHA, Con A or PWM, and cultured for 48 hrs followed by a 24 hr pulse. […] Cell concentrations were 8×10^4 /well total volume 250 μl. The dpm of the experimental replicates were expressed as a percentage of the mean value of the controls, and the mean value of the experimental replicates calculated."}, "ovarian cancer cells": {"tested_on": "ovarian cancer cells", "assay": "Inhibition of tritiated thymidine uptake, ovarian cancer cells", "protocol": "The inhibition of cell replication by steroid alkaloids is determined by the inhibition of the incorporation of ^3 H thymidine into DNA. Using this technique, it should be possible to monitor any preferential inhibition of uptake of ^3 H thymidine by cancer cells.\nCells were maintained as monolayers in RPM1-1640 tissue culture media (Grant Island Biological Co) buffered with N-2-hydroxy-ethylpiperazine-N-2-ethanesulphonic acid pH 7.5 and supplemented with 10% heat inactivated fetal calf serum (FCS): (i) a human ovarian cancer cell line (C180-135), (ii) HeLa cells, (iii) human fibroblasts, and (iv) as a cell suspension of lymphoblastoid cells (EBV transformed lymphocytes). Monolayers were trypsinized to form a cell suspension. […] Cell concentration was adjusted to 2×10^5 cells/ml, and 2×10^4 cells were added in replicates of 10 to the wells (1×10^5 /ml well) of HA microtitre plates (Millipore Corp., USA). The cells were preincubated at 37.5° C. for 7 hours prior to the addition of 50 μl of the cytotoxic drug followed by the addition of 50 μl 5 uCi/ml of ^3 H thymidine, in the same tissue culture media 21 hours later. Incubation was continued for a total of 24 hours, which includes the pre-incubation time.\nAppropriate DMSO cytotoxicity studies were also conducted. Solasodine glycosides were supplied as a mixture (BEC), and as separate components, solamargine, solasonine, a mixture of di- and mono-glycosides and the aglycone solasodine. All cytotoxic drugs were further diluted with HIFCS/TCM before testing. 5×10^4 ovarian cancer cells (200 μl/chamber of a chamber of microscope slide (Lab Tek Miles Scientific) were used. Controls received 50 μl HIFCS/TCM and experimental chambers 50 μl of solasodine glycosides (BEC) 1.5-3.8 μM/L after 7 hrs preincubation, and incubated for a further 3 hrs. Similarly, the cells were treated with the aglycone solasodine 19.4-96.8 μM/L. The cells were fixed and examined by the Papanicolaou method."}, "[2]": {"tested_on": "PWM stimulated lymphocytes", "assay": "Inhibition of tritiated thymidine uptake, PWM stimulated lymphocytes", "details": "PWM stimulated lymphocytes", "description": "as §1, §2"}}, "note": "“Also recorded” adds a separate entry of the source. Like-named read-outs stand apart in the source and are kept apart here."}
{"smiles": "C[C@@H]1CC[C@@]2(NC1)O[C@H]1C[C@H]3[C@@H]4CC=C5C[C@@H](O[C@@H]6O[C@H](CO)[C@@H](O[C@@H]7O[C@@H](C)[C@H](O)[C@@H](O)[C@H]7O)[C@H](O)[C@H]6O[C@@H]6O[C@@H](C)[C@H](O)[C@@H](O)[C@H]6O)CC[C@]5(C)[C@H]4CC[C@]3(C)[C@H]1[C@@H]2C", "note": "[Solamargine, solamargine]", "values": [{"measurement": "viability at 3.1 µM", "setting": "fibroblasts; 1.1 μM/L galactose, *** p < 0.001", "value": 101, "unit": "%"}, {"measurement": "viability at 3.1 µM", "setting": "fibroblasts; 1.1 μM/L lactose, *** p < 0.001", "value": 100, "unit": "%"}, {"measurement": "viability at 3.1 µM", "setting": "fibroblasts; 1.1 μM/L rhamnose, *** p < 0.001", "value": 87, "unit": "%"}, {"measurement": "viability at 3.1 µM", "setting": "fibroblasts; no carbohydrate", "value": "58 ± 9.6", "unit": "%"}, {"measurement": "cytotoxicity (words)", "setting": "[1]", "value": "limited effect; also recorded: limited cytotoxicity"}, {"measurement": "viability at 11.5 µM", "setting": "in vitro", "value": "93 ± 4.4", "unit": "%"}, {"measurement": "IC50", "setting": "ovarian cancer cells; Homo sapiens, read-out: LD50 (dose to inhibit 50% tritiated thymidine uptake)", "value": 1550, "unit": "nM"}, {"measurement": "viability at 11.5 µM", "setting": "ovarian cancer cells; Homo sapiens, read-out: Percentage Cell Survival", "value": "7 ± 0.8", "unit": "%"}, {"measurement": "LD50 of solamargine less than that of vinblastine, chlorambucil or cis-platinum", "setting": "ovarian cancer cells; ovarian cancer cells, fold lower", "value": "6-40 times"}, {"measurement": "cytotoxicity (words)", "setting": "[2]", "value": "absence of cytotoxicity"}]}
